These results are taken from article PMC10746112, “Synthesis and Pro-Apoptotic Effects of Nitrovinylanthracenes and Related Compounds in Chronic Lymphocytic Leukaemia (CLL) and Burkitt’s Lymphoma (BL)” (Molecules, 2023).

In data set [1] the test system is MUTU-I Burkitt’s lymphoma cell line. As to the kind of experiment: alamarBlue cell viability assay. The following applies: MUTU-I, 24 h; for viability at 1 µM: read-out: % Viable Cells Remaining MUTU-1, 1 µM, 24 h; for viability at 10 µM: read-out: % Viable Cells Remaining MUTU-1, 10 µM, 24 h.
Data set [2] has the same test system. The following applies: human, 24 h, 10 µM.
The subject of data set [3] is DG-75 Burkitt’s lymphoma cell line. The following applies: human, 48 h, 10 µM.
The test system is the same in data set [4]. As to the kind of experiment: alamarBlue cell viability assay. The settings on record: Homo sapiens, DG-75, 48 h; for viability at 1 µM: read-out: % Viable Cells Remaining DG-75, 1 µM, 48 h; for viability at 10 µM: read-out: % Viable Cells Remaining DG-75, 10 µM, 48 h. (In general: Resazurin is reduced to fluorescent resorufin, in cell work by metabolically active cells.)

For the next data set, the system named is MUTU-1 cells. Further details: method as in earlier work. The following applies: nitrostyrenes and taxol, MTT assay, reported data; cited from earlier work. On the technique in general: Tetrazolium assays rely on reduction of a dye to a coloured formazan, in cell work by metabolically active cells.
A further data set relates to DG-75 cells. Further details: method as in earlier work. The following applies: nitrostyrenes and taxol, MTT assay, reported data; cited from earlier work.
Data set [5] relates to MUTU-I Burkitt’s lymphoma cell line. The settings on record: nitrostyrenes, 10 µM, 24 h; cited from earlier work.
The next data set concerns MUTU-I BL cells. As to the kind of experiment: Annexin V/PI apoptotic assay (FACS). It is filed as cell-based. The following applies: 10 µM, 24 h, total (early + late) apoptosis. On the procedure:
(§1) The chemotherapeutic drug taxol was used as a positive control. The pro-apoptotic effects of the selected nitrostyrene compounds 11g, 11h, 11i, 11j, 11k and 11l (10 μM) were determined using FITC (fluorescein isothiocyanate), Annexin V/PI (propidium iodide) staining and FACS (fluorescence-activated cell sorting) analysis to characterise the mode of cellular death induced by the synthesised compounds. Four populations were produced in this assay: Annexin-V- and PI-negative (Q4, healthy cells), Annexin-V-positive and PI-negative (Q3, early apoptosis), Annexin-V- and PI-positive (Q2, late apoptosis) and Annexin-V-negative and PI-positive (Q1, necrosis), which were easily identified and quantified. Apoptosis was assessed as % total apoptosis by a combination of early and late apoptosis (Q3 and Q2, respectively). […] The identification of compounds that can induce apoptosis in cancer cells is required in the development of potential lead structures for anticancer drugs.
(§2) The BL cells DG-75 and MUTU-I (750,000) were treated at 37 °C with either vehicle (0.1% (v/v) EtOH), […] taxol (10 μM) and incubated for 24 h (MUTU-1) or 48 h (DG-75). The CLL cells PGA1 and HG3 (1 × 10^6 cells/mL) were treated at 37 °C with either vehicle (1% (v/v) DMSO) or the nitrostyrene compounds 19a (10 μM, 5 μM and 1 μM) and 19g, 19i, 19l and 19m (10 μM and 1 μM) for 48 h. The cells were then harvested by centrifugation at 400× g in a temperature-controlled Sorvall centrifuge and rinsed with 0.5 mL of Ca^2+ Annexin-V-binding buffer (0.1 M HEPES, pH 7.4; 0.14 M NaCl; 25 mM CaCl2). The samples were resuspended in 50 µL FITC Annexin V (diluted 1:33 in Ca^2+ Annexin V-binding buffer), incubated on ice for 10 min (protected from light), washed with Annexin-V-binding buffer and re-suspended in 500 µL of propidium iodide (PI) solution (0.5 µg/mL). The samples were analysed within 1 h using a BD Accuri C6 flow cytometer counting 10,000 cells and analysed using the FlowJo software (FlowJo LLC, Ashland, OR, USA) package.

The subject of the next data set is DG-75 BL cells. As to the kind of experiment: Annexin V/PI apoptotic assay (FACS). It is filed as cell-based. The settings on record: 10 µM, 48 h, total (early + late) apoptosis. On the procedure: as §1, §2
The test system of the next data set is HG-3 CLL cell line. As to the kind of experiment: alamarBlue cell viability assay. The settings on record: 24 h.
Another data set relates to PGA-1 CLL cell line. As to the kind of experiment: alamarBlue cell viability assay. The following applies: 24 h; for viability at 10 µM: read-out: % Viability PGA-1, 10 µM, 24 h.

A value given as a limit tells only on which side of the number the result lay.

On to `CC(=CCc1c2ccccc2cc2ccccc12)[N+](=O)[O-]` [Compound 20b, 9-(3-Nitrobut-2-en-1-yl)Anthracene], for which the viability at 1 µM came out at 105% in [1] and 95.4% in data set [4]. In addition, the viability at 10 µM in data set [1] lay in the range of 15 to 40%; in data set [4], 79 to 97%. In addition, in data set [2], the “% Viable Cells Remaining MUTU-1” value came out at 14.55%. Further, the “% Viable Cells Remaining DG-75” value in [3] came out at 97.63%.

Consider `CC(=O)/C=C/c1c2ccccc2cc2ccccc12` [Compound 25], for which, in data set [1], the viability at 1 µM worked out at 107% and the viability at 10 µM is > 90%. Moreover, in [2], the “% Viable Cells Remaining MUTU-1” value is on record as 103.2%. The “% Viable Cells Remaining DG-75” value in data set [3] was 100.5%. For the same compound, in data set [4], the viability at 1 µM amounted to 96.3% and the viability at 10 µM was > 90%.

In general, melting point refers to the temperature, or range, at which the solid turns liquid. `c1ccc2c(C3CNN=N3)c3ccccc3cc2c1` (stereo not drawn) [Compound 31, 4-(Anthracen-9-yl)-4,5-Dihydro-1H-1,2,3-Triazole] gave a melting point of 266 to 268 °C. In data set [1], the viability at 1 µM is 96% and the viability at 10 µM is > 90%. For the same compound, the “% Viable Cells Remaining MUTU-1” value in [2] stood at 103.1%. Moreover, the “% Viable Cells Remaining DG-75” value in data set [3] is recorded as 103.1%. In addition, in [4], the viability at 1 µM was determined as 96% and the viability at 10 µM was > 90%.

Broadly, the IC50 is the concentration that gives 50% inhibition. As to `CC/C(=C\c1ccc(Cl)cc1)[N+](=O)[O-]` [Compound 11l], the IC50 with MUTU-1 cells was 1180 nM; with DG-75 cells it was 3110 nM. Also, in data set [5], the “% Viable Cells Remaining MUTU-1 24 h 10 µM” value is on record as 2.61%. For the same compound, in the data set with MUTU-I BL cells, the “MUTU-I Apoptosis (%)” value came to 91.3%. Moreover, the “DG-75 Apoptosis (%)” value with DG-75 BL cells is on record as 85.0%.

The compound `O=C(c1c2ccccc2cc2ccccc12)N1CCCCCC1` [Compound 33c, Anthracen-9-yl(Azepan-1-yl)Methanone] came in with a melting point of 134 to 137 °C. In data set [1], the viability at 1 µM turned out to be 86.8% and the viability at 10 µM was 77.4%. Besides, in [2], the “% Viable Cells Remaining MUTU-1” value came out at 77.4%. Further, in data set [4], the viability at 1 µM worked out at 69.6% and the viability at 10 µM was determined as 71.6%.

With `O=[N+]([O-])CCc1c2ccccc2cc2ccccc12` [Compound 22, 9-(2-Nitroethyl)Anthracene], the melting point was 147 to 149 °C. Moreover, in data set [1], the viability at 1 µM amounted to 105% and the viability at 10 µM was > 85%. Moreover, the “% Viable Cells Remaining MUTU-1” value in data set [2] was 100.6%. In [3], the “% Viable Cells Remaining DG-75” value was determined as 99.08%. The viability at 10 µM in the data set with HG-3 CLL cell line (CLL cell, read-out: % Viability HG-3, 10 µM, 24 h) came to 76%. For the same compound, the viability at 10 µM in the data set with PGA-1 CLL cell line (CLL cell) amounted to 75%. In addition, in [4], the viability at 1 µM was 86.7% and the viability at 10 µM is > 85%.

As to `CC/C(=C\c1cccc(Cl)c1)[N+](=O)[O-]` [Compound 11k], the IC50 was 1220 nM in the data set with MUTU-1 cells and 2360 nM in the data set on DG-75 cells. Also, in data set [5], the “% Viable Cells Remaining MUTU-1 24 h 10 µM” value was 2.39%. In the data set with HG-3 CLL cell line (10 µM), the “% Viability HG-3” value is on record as 0.11%. Further, the viability at 1 µM with HG-3 CLL cell line (CLL cell, read-out: % Viability HG-3, 1 µM, 24 h) was found to be 60.7%; in the data set with PGA-1 CLL cell line (CLL cell, read-out: % Viability PGA-1, 1 µM, 24 h), 3.26%. Moreover, the “% Viability PGA-1” value in the data set on PGA-1 CLL cell line (10 µM) is recorded as 4.34%. Moreover, in the data set with MUTU-I BL cells, the “MUTU-I Apoptosis (%)” value is 91.5%. In the data set on DG-75 BL cells, the “DG-75 Apoptosis (%)” value turned out to be 90.7%.

`Cc1[nH]nnc1-c1c2ccccc2cc2ccccc12` [Compound 30b, 4-(Anthracen-9-yl)-5-Methyl-1H-1,2,3-Triazole] had a melting point of 231 to 232 °C. Moreover, in [1], the viability at 1 µM was determined as 108% and the viability at 10 µM was > 90%. The “% Viable Cells Remaining MUTU-1” value in data set [2] came to 107.3%. For the same compound, in data set [3], the “% Viable Cells Remaining DG-75” value amounted to 100.6%. Also, in data set [4], the viability at 1 µM was 96.2% and the viability at 10 µM is > 90%.

With `c1ccc2c(-c3c[nH]nn3)c3ccccc3cc2c1` [Compound 30a, 4-(anthracen-9-yl)-1H-1,2,3-triazole], the viability at 1 µM in data set [1] was found to be 94.9%; in data set [4] it was 104%. For the same compound, the viability at 10 µM in [1] and in [4] was > 90% each time. Also, the “% Viable Cells Remaining MUTU-1” value in data set [2] worked out at 94.5%. Further, in data set [3], the “% Viable Cells Remaining DG-75” value came out at 94.86%.

Compound `O=C(c1c2ccccc2cc2ccccc12)N1CCCC1` [Compound 33d] returned a melting point of 149 to 151 °C. For the same compound, in data set [1], the viability at 1 µM was 91.6% and the viability at 10 µM was determined as 95.6%. Besides, the “% Viable Cells Remaining MUTU-1” value in data set [2] was 95.6%. Also, in [4], the viability at 1 µM worked out at 69.4% and the viability at 10 µM stood at 67.1%.

With `O=C(c1c2ccccc2cc2ccccc12)N1CCCCC1` [Compound 33f], the melting point fell in the range of 181 to 183 °C. Further, in data set [1], the viability at 1 µM amounted to 83.1% and the viability at 10 µM is 84.8%. In addition, the “% Viable Cells Remaining MUTU-1” value in [2] was 84.8%. Further, in [4], the viability at 1 µM was determined as 72.5% and the viability at 10 µM was found to be 78.8%.

Compound `CN(C)C(=O)c1c2ccccc2cc2ccccc12` [Compound 33b] yielded a melting point of 150 to 152 °C. In [1], the viability at 1 µM was determined as 91.4% and the viability at 10 µM came to 90.1%. Besides, in data set [2], the “% Viable Cells Remaining MUTU-1” value was 90.1%. Further, in data set [4], the viability at 1 µM is 96.2% and the viability at 10 µM was determined as 75%.

For `O=[N+]([O-])C=CCc1c2ccccc2cc2ccccc12` [Compound 20a, 9-(3-Nitroallyl)Anthracene], the viability at 1 µM turned out to be 106% in [1] and 99.9% in [4]. The “% Viable Cells Remaining DG-75” value in data set [3] is recorded as 79.71%. In addition, the viability at 10 µM in the data set on PGA-1 CLL cell line (CLL cell) was > 50%; in [4], 79 to 97%.
